The source of these data is paper PMC6479714, “Multiplex Analysis Platform for Endocrine Disruption Prediction Using Zebrafish” (International Journal of Molecular Sciences, 2019).

Read-outs that look alike come from different tables or passages of the source.

In data set [1] the test system is iodothyronine deiodinase 1 (dio1). Nature of the data set: dio1 gene expression (qPCR) in exposed zebrafish embryos. It is filed as in vivo. The settings on record: Danio rerio; exposed 48–120 hpf; Figure 4; no unit printed for this gene.
Data set [2] has as its system iodothyronine deiodinase 2 (dio2). The experiment in a line: dio2 gene expression (qPCR) in exposed zebrafish embryos. The class given is in vivo, zebrafish (Danio rerio). The settings on record: for EC50: Danio rerio.
Data set [3] in a line: acute toxicity test from 48–120 hpf based on the OECD FET test. The class given is in vivo, zebrafish (Danio rerio). The settings on record: in vivo; zebrafish embryos exposed 48–120 hpf. An excerpt:
Twenty embryos per treatment were exposed to 5 concentrations of compound of interest in a 10× dilution factor from 48–120 hpf, which is the experimental time in which EDCs will be screened posteriorly. Embryos were exposed from 48–120 hpf rather than 0–96 hpf or 0–120 hpf to avoid unspecific toxicity outside of the EDC testing period, which have been chosen on the basis that endocrine pathways, e.g., thyroid metabolism, are not fully functional until 40–55 hpf in zebrafish embryos. Stock solutions of chemicals to be tested were freshly prepared in exposure medium. The highest concentration for each compound was selected according to its water solubility (Table S1). Exposures were performed in glass vessels to assure maximum bioavailability for hydrophobic compounds, and medium was not exchanged during the experiment.

The test system of data set [4] is transthyretin (ttr). Nature of the data set: ttr gene expression (qPCR) in exposed zebrafish embryos. The class given is in vivo, zebrafish (Danio rerio). The settings on record: for EC50: Danio rerio; for effect on ttr expression: exposed 48–120 hpf.
Data set [5] has as its system pax8. Nature of the data set: pax8 gene expression (qPCR) in exposed zebrafish embryos. The class given is in vivo, zebrafish (Danio rerio). The settings on record: exposed 48–120 hpf.
Data set [6] concerns thyroid peroxidase (tpo). The experiment in a line: tpo gene expression (qPCR) in exposed zebrafish embryos. The settings on record: for EC50: Danio rerio. The class given is in vivo, zebrafish (Danio rerio).
The test system of data set [7] is dio2 - mRNA. Also on record: method as in earlier work. The settings on record: 0-120 h, ref [33] (supplement list), cited from earlier work.
Data set [8] deals with thyroid receptor α (trα). The experiment in a line: trα gene expression (qPCR) in exposed zebrafish embryos. The class given is in vivo, zebrafish (Danio rerio). The settings on record: exposed 48–120 hpf.
Data set [9] has as its system vtg - blood. The settings on record: 8 days (adults), cited from earlier work.
In data set [10] the test system is aromatase (cyp19a1). Nature of the data set: cyp19a gene expression (qPCR) in exposed zebrafish embryos. The class given is in vivo, zebrafish (Danio rerio). The settings on record: exposed 48–120 hpf; Figure S1.
The subject of data set [11] is cyp19a1b - mRNA. The settings on record: 14 days (adults), cited from earlier work.
Data set [12] relates to cyp19a1b - fluorescence. The settings on record: 0-96 h, cited from earlier work; for LogEC50 (cyp19a1b - fluorescence): log of EC50 in μM.
The test system of data set [13] is vtg1 - mRNA. The settings on record: cited from earlier work; for EC50: * mean of an approximate range, read-out: EC50 (vtg1 - mRNA); for LogEC50 (vtg1 - mRNA): log of EC50 in μM.
The subject of data set [14] is cyp19a1b - mRNA. The settings on record: cited from earlier work; for LogEC50 (cyp19a1b - mRNA): log of EC50 in μM.
Data set [15] concerns vtg - blood. The settings on record: cited from earlier work; for LogEC50 (vtg - blood): log of EC50 in μM.
The test system of data set [16] is vtg1 - fluorescence. The settings on record: 21 days (adults), cited from earlier work.
Data set [17] has as its system vitellogenin 1 (vtg1). The experiment in a line: vtg1 gene expression (qPCR) in exposed zebrafish embryos.
For data set [18], the system named is cyp19a1b - mRNA. The settings on record: cited from earlier work.
Data set [19] concerns vtg - blood. The settings on record: 21 days (adults), cited from earlier work; for EC50: read-out: EC50 (vtg - blood); for LogEC50 (vtg - blood): log of EC50 in μM.
Data set [20] relates to brain aromatase (cyp19a1b). The experiment in a line: cyp19a1b gene expression (qPCR) in exposed zebrafish embryos. The class given is in vivo, zebrafish (Danio rerio).
For data set [21] the following is noted: listed physicochemical property, source not given; cited from earlier work.
Data set [22] deals with tpo - mRNA. The settings on record: 48-120 h, ref [32] (supplement list), cited from earlier work.
The mark [23] stands for this setting: exogenous T3, 48–120 hpf, downregulated.
Setting [24] is: log of EC50 in μM, 48-120 h, our study.
[25] abbreviates: E2 1 µM alone, rescue experiment.

For `N[C@@H](Cc1cc(I)c(Oc2ccc(O)c(I)c2)c(I)c1)C(=O)O` [T3, 3,3′,5-triiodo-L-thyronine], the EC50 is 3.58 nM in data set [1]; 0.28 nM in [2] (read-out: EC50 dio2, exposed 48–120 hpf, Figure 4, downregulated); 6.81 nM in data set [2] (read-out: EC50 dio2, exposure 0–96 hpf, Figure 1, comparison of exposure windows, 0–96 hpf); 1.23 nM in data set [2] (read-out: EC50 dio2, exposure 48–120 hpf, Figure 1, comparison of exposure windows, 48–120 hpf); 0.3 nM in data set [2] (read-out: EC50 dio2, zebrafish embryos exposed 48–120 hpf, mRNA by qPCR); 0.31 nM in data set [4] (read-out: EC50 ttr, exposed 48–120 hpf, Figure 4, downregulated). Further, the EC50 in data set [4] (read-out: EC50 ttr, exposure 0–96 hpf, Figure 1, comparison of exposure windows, 0–96 hpf) stood at 0.49 nM; in [4] (read-out: EC50 ttr, exposure 48–120 hpf, Figure 1, comparison of exposure windows, 48–120 hpf) it was 0.32 nM; in data set [4] (read-out: EC50 ttr, zebrafish embryos exposed 48–120 hpf, mRNA by qPCR) it was 0.3 nM; in [6] (read-out: EC50 tpo, exposed 48–120 hpf, Figure 4, upregulated), 9.93 nM; in data set [6] (read-out: EC50 tpo, exposure 48–120 hpf, Figure 1, comparison of exposure windows, 48–120 hpf), 4.09 nM; in [6] (read-out: EC50 tpo, zebrafish embryos exposed 48–120 hpf, mRNA by qPCR), 10 nM. In addition, the “FI dio2” value in [2] (setting [23]) is on record as 0.26. The molecule further showed a median lethal concentration (LC50) in data set [3] of 6000 nM. The same molecule gave an FI ttr in data set [4] (setting [23]) of 0.49. In addition, in [5], the “response of pax8” value is “lack of response”. Also, the “effect on tpo expression, exposure 0–96 hpf” value in data set [6] (embryos exposed from 0–96 hpf) is given as “slight decrease”. Further, the FI tpo in [6] (exogenous T3, 48–120 hpf, upregulated) worked out at 4.11.

Regarding `CCCCC(O)(Cn1cncn1)c1ccc(Cl)cc1Cl` (stereo not drawn) [HEX, hexaconazole], the EC50 was 2220 nM in data set [2] (zebrafish embryos exposed 48–120 hpf, mRNA by qPCR, read-out: EC50 dio2) and around 3980 nM in [7] (* mean of an approximate range). Moreover, the “LogEC50 (dio2 - mRNA)” value was 0.3464 in [2] (setting [24]) and 0.5999 in data set [7] (log of EC50 in μM). The same molecule gave an LC50 in data set [3] of 23400 nM. The “effect on ttr expression” value in data set [4] is listed as “remained unaltered”. For the same molecule, the “effect on trα expression” value in data set [8] is reported as “remained unaltered”.

`C[C@]12CC[C@@H]3c4ccc(O)cc4CC[C@H]3[C@@H]1CC[C@@H]2O` [E2, 17β-estradiol]: the EC50 in [9] (ref [12] (supplement list: Rose 2002)) was 0.2 nM; in data set [11] (effects only detected in males, ref [9] (supplement list: Halm 2002)), 0.4 nM; in data set [12] (ref [2] (supplement list: Petersen 2013)), 3.4 nM; in [12] (ref [3] (supplement list: Brion 2012)), 2.4 nM; in [13] (0-120 h, ref [11] (supplement list: Muncke 2006)), around 30 nM; in data set [13] (0-168 h, ref [10] (supplement list: Chen 2018)), around 180 nM. Besides, the half-maximal effective concentration (EC50) in [14] (0-72 h, * mean of an approximate range, ref [4] (supplement list: Lassiter 2007)) is around 10 nM; in [14] (0-96 h, ref [3] (supplement list: Brion 2012)) it was 4.1 nM; in [14] (2-48 h, * mean of an approximate range, ref [6] (supplement list: Kishida 2001)), around 10 nM; in data set [14] (72-96 h, * mean of an approximate range, ref [5] (supplement list: Chung 2011)), around 5.5 nM; in [15] (14 days (adults), ref [14] (supplement list: Brian 2005)), 0.09 nM; in data set [15] (24 days (adults), ref [13] (supplement list: Van den Belt 2004)), 0.6 nM. The half-maximal effective concentration (EC50) in data set [16] (ref [17] (supplement list: Zeng 2005)) was around 0.55 nM; in data set [17] (Danio rerio, read-out: EC50 vtg1), 190 nM; in data set [19] (* mean of an approximate range, ref [16] (supplement list: Parks 1999)), around 0.6 nM; in data set [19] (ref [15] (supplement list: Dammann 2011)), 0.09 nM; in data set [20] (Danio rerio, zebrafish embryos exposed 48–120 hpf, mRNA by qPCR) it was 90 nM. For the same molecule, the “LogEC50 (vtg - blood)” value was -3.699 in data set [9] (log of EC50 in μM, ref [12] (supplement list)); -4.046 in [15] (14 days (adults), ref [14] (supplement list)); -3.222 in data set [15] (24 days (adults), ref [13] (supplement list)); -4.046 in data set [19] (ref [15] (supplement list)); -3.222 in data set [19] (ref [16] (supplement list)). In addition, the “response of cyp19a” value in data set [10] is “no response”. The “LogEC50 (cyp19a1b - mRNA)” value was -3.398 in data set [11] (log of EC50 in μM, males, ref [9] (supplement list)); -2 in [14] (0-72 h, ref [4] (supplement list)); -2.387 in data set [14] (0-96 h, ref [3] (supplement list)); -2 in data set [14] (2-48 h, ref [6] (supplement list)); -2.26 in data set [14] (72-96 h, ref [5] (supplement list)). For the same molecule, the “LogEC50 (cyp19a1b - fluorescence)” value in data set [12] (ref [2] (supplement list)) is listed as -2.469; in [12] (ref [3] (supplement list)) it was -2.62. In addition, the “LogEC50 (vtg1 - mRNA)” value in [13] (0-120 h, ref [11] (supplement list)) was -1.523; in [13] (0-168 h, ref [10] (supplement list)) it was -0.757. For the same molecule, in data set [16] (log of EC50 in μM, ref [17] (supplement list)), the “LogEC50 (vtg1 - fluorescence)” value is recorded as -3.26. In addition, the “FI vtg1, single exposure” value in data set [17] (setting [25]) turned out to be 394.39. For the same molecule, in [17] (setting [24]), the “LogEC50 (vtg1 mRNA)” value is -0.7212. The “EC50 (cyp19a1b - mRNA), class symbol” value in data set [18] (7 days (adults), ref [7] (supplement list: Hinfray 2006)) is “n.e”; in data set [18] (21 days (adults), ref [8] (supplement list: Kallivretaki 2006)), “n.e”. The “FI cyp19a1b, single exposure” value in data set [20] (setting [25]) is 64.54. Also, the “LogEC50 (cyp19a1b mRNA)” value in data set [20] (setting [24]) is on record as -1.046.

With `Cn1cc[nH]c1=S` [MMI, methimazole], the “effect on dio2 expression” value in data set [2] (exposed 48–120 hpf) is listed as “None of the other three remaining thyroid markers analyzed were affected”. Further, in data set [4], the “effect on ttr expression” value is listed as “None of the other three remaining thyroid markers analyzed were affected”. For the same molecule, the Water solubility in [21] was 277.5 mg/mL. Further, the “effect on trα expression” value in data set [8] was “None of the other three remaining thyroid markers analyzed were affected”. Besides, the EC50 is 487000 nM in [22] (main text refs 25, 29) and 397000 nM in [6] (zebrafish embryos exposed 48–120 hpf, mRNA by qPCR, read-out: EC50 tpo). Besides, the “LogEC50 (tpo - mRNA)” value in data set [22] (log of EC50 in μM) is on record as 2.688; in [6] (setting [24]), 2.599.
